In this assay the target is T1, KCNQ 2/3 channels (HEK293 cells stably expressing human KCNQ2 and KCNQ3 subunits) (Homo sapiens, UniProt O43525+O43526).
T1 construct: expressed in transfected cells; host or cells: HEK293
Put plainly: KCNQ2/3 channel activation, thallium flux FLIPR assay (BTC-AM dye). The class given is cell-based. The conditions noted are these: for Emax: HEK293, maximum response relative to response of retigabine at 10 μM (set at 100%), read-out: Max. %; for EC50: HEK293 cells expressing human KCNQ2 and KCNQ3, FLIPR thallium flux. The essentials:
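HEK293 cells stably expressing human KCNQ2/KCNQ3 were loaded with BTC-AM and exposed to compound for 4 min in pH 7.3 gluconate buffer with ouabain. Thallium flux was triggered with 6 mM TlNO3 and 10 mM K2SO4 (stock additions) and fluorescence (ex 488, em 540 nm) recorded for 3 min. EC50 came from responses over baseline; maximal response is relative to 10 μM retigabine (100%).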

Molecules are shown by their SMILES.

What is called EC50 is the concentration that produces a half-maximal response. A higher EC50 goes with a need for much substance. Take `CC(C)(C)CC(=O)Nc1nn2cccnc2c1/C=C/c1ccc(Cl)cc1` [Example 111, N-{3-[(E)-2-(4-chlorophenyl)vinyl]pyrazolo[1,5-a]pyrimidin-2-yl}-3,3-dimethylbutanamide]: the Emax came to 59% and the EC50 was more than 10000 nM.

As to `CC(C)c1c(NC(=O)CCC2CCCC2)nn2cccnc12` [Example 112, 3-cyclopentyl-N-(3-isopropylpyrazolo[1,5-a]pyrimidin-2-yl)propanamide], the Emax turned out to be 135% and the EC50 lay in the range of 500 to 1000 nM.

Consider `CC(C)c1c(NC(=O)CC(C)(C)C)nn2cccnc12` [Example 113, N-(3-isopropylpyrazolo[1,5-a]pyrimidin-2-yl)-3,3-dimethylbutanamide], for which the Emax worked out at 18% and the concentration giving a half-maximal response (EC50) is 100 to 500 nM.

Regarding `Cc1cc(C)n2nc(NC(=O)CCC3CC3)c(-c3ccc(Cl)c(C)c3)c2n1` [Example 114, N-[3-(4-chloro-3-methylphenyl)-5,7-dimethylpyrazolo[1,5-a]pyrimidin-2-yl]-3-cyclopropylpropanamide], the Emax was determined as 119% and the EC50 was in the range of 100 to 500 nM.

Take `Cc1ccc(/C=C/c2c(NC(=O)CC(C)(C)C)nn3cccnc23)cn1` [Example 115, 3,3-dimethyl-N-{3-[(E)-2-(6-methylpyridin-3-yl)vinyl]pyrazolo[1,5-a]pyrimidin-2-yl}butanamide]: the Emax came to 10% and the EC50 was more than 10000 nM.

With `O=C(CC12CC3CC(CC(C3)C1)C2)Nc1nn2cccnc2c1-c1ccc2ccccc2c1` [Example 116, 2-(adamantan-1-yl)-N-[3-(2-naphthyl)pyrazolo[1,5-a]pyrimidin-2-yl]acetamide], the Emax came out at 98% and the EC50 is 500 to 1000 nM.

Consider `CC(C)(CC(=O)Nc1nn2cccnc2c1-c1ccc(Cl)cc1)c1ccccc1` [Example 117, N-[3-(4-chlorophenyl)pyrazolo[1,5-a]pyrimidin-2-yl]-3-methyl-3-phenylbutanamide], for which the Emax was found to be 64% and the EC50 was more than 10000 nM.

`CC(C)c1c(NC(=O)CCC2CC2)nn2cccnc12` [Example 118, 3-cyclopropyl-N-(3-isopropylpyrazolo[1,5-a]pyrimidin-2-yl)propanamide]: the Emax is 14% and the EC50 is more than 10000 nM.

For `O=C(CCC1CCCC1)Nc1nn2cccnc2c1-c1cccnc1` [Example 119, 3-cyclopentyl-N-[3-(pyridin-3-yl)pyrazolo[1,5-a]pyrimidin-2-yl]propanamide], the Emax came out at 52% and the EC50 was in the range of 1000 to 10000 nM.

Regarding `Cc1cc(C)n2nc(NC(=O)CCC3CCCC3)c(C(C)C)c2n1` [Example 122, 3-cyclopentyl-N-(3-isopropyl-5,7-dimethylpyrazolo[1,5-a]pyrimidin-2-yl)propanamide], the Emax is 155% and the EC50 is less than 100 nM.

Regarding `CC(C)(C)c1c(NC(=O)Cc2ccc(F)cc2)nn2cccnc12` [Example 123, N-(3-tert-butylpyrazolo[1,5-a]pyrimidin-2-yl)-2-(4-fluorophenyl)acetamide], the Emax stood at 142% and the EC50 was 100 to 500 nM.

For `COC(=O)c1c(NC(=O)CCC2CCCC2)nn2cccnc12` [Example 125, methyl 2-[(3-cyclopentylpropanoyl)amino]pyrazolo[1,5-a]pyrimidine-3-carboxylate], the Emax stood at 8% and the EC50 was more than 10000 nM.

For the compound `CC(C)(C)c1c(NC(=O)CC(C)(C)c2ccccc2)nn2cccnc12` [Example 126, N-(3-tert-butylpyrazolo[1,5-a]pyrimidin-2-yl)-3-methyl-3-phenylbutanamide], the Emax was found to be 133% and the EC50 was 100 to 500 nM.

In the case of `CC(C)(C)c1c(NC(=O)Cc2cc(F)cc(F)c2)nn2cccnc12` [Example 127, N-(3-tert-butylpyrazolo[1,5-a]pyrimidin-2-yl)-2-(3,5-difluorophenyl)acetamide], the Emax worked out at 147% and the EC50 was 100 to 500 nM.

For `CC(C)(CC(=O)Nc1nn2cccnc2c1-c1cccc(F)c1)c1ccccc1` [Example 128, N-[3-(3-fluorophenyl)pyrazolo[1,5-a]pyrimidin-2-yl]-3-methyl-3-phenylbutanamide], the Emax is 96% and the EC50 fell in the range of 1000 to 10000 nM.

In the case of `CC(C)(C)c1c(NC(=O)CCc2ccccc2)nn2cccnc12` [Example 129, N-(3-tert-butylpyrazolo[1,5-a]pyrimidin-2-yl)-3-phenylpropanamide], the Emax stood at 160% and the EC50 lay in the range of 100 to 500 nM.

For the compound `CC(C)(C)c1c(NC(=O)CC2CCCCC2)nn2cccnc12` [Example 130, N-(3-tert-butylpyrazolo[1,5-a]pyrimidin-2-yl)-2-cyclohexylacetamide], the Emax was 131% and the EC50 is 100 to 500 nM.

Regarding `CC(C)(C)c1c(NC(=O)CCC2CCCCC2)nn2cccnc12` [Example 132, N-(3-tert-butylpyrazolo[1,5-a]pyrimidin-2-yl)-3-cyclohexylpropanamide], the Emax was 142% and the EC50 is less than 100 nM.

On to `CC(C)c1c(NC(=O)COC2CCCC2)nn2cccnc12` [Example 133, 2-(cyclopentyloxy)-N-(3-isopropylpyrazolo[1,5-a]pyrimidin-2-yl)acetamide], for which the Emax was found to be 7% and the EC50 was more than 10000 nM.

For `Cc1cc(C)n2nc(NC(=O)COC3CCCC3)c(-c3ccc(Cl)c(C)c3)c2n1` [Example 134, N-[3-(4-chloro-3-methylphenyl)-5,7-dimethylpyrazolo[1,5-a]pyrimidin-2-yl]-2-(cyclopentyloxy)acetamide], the Emax was 11% and the EC50 is more than 10000 nM.

In the case of `O=C(CCC1CCCC1)Nc1nn2cccnc2c1-c1cccc(F)c1` [Example 135, 3-cyclopentyl-N-[3-(3-fluorophenyl)pyrazolo[1,5-a]pyrimidin-2-yl]propanamide], the Emax came to 143% and the EC50 is 100 to 500 nM.

For `CC(C)(C)c1c(NC(=O)/C=C/c2ccccc2)nn2cccnc12` [Example 136, (2E)-N-(3-tert-butylpyrazolo[1,5-a]pyrimidin-2-yl)-3-phenylacrylamide], the Emax was determined as 8% and the EC50 was more than 10000 nM.

Regarding `CC(C)(C)c1c(NC(=O)Cc2ccccc2)nn2cccnc12` [Example 137, N-(3-tert-butylpyrazolo[1,5-a]pyrimidin-2-yl)-2-phenylacetamide], the Emax was determined as 195% and the EC50 was in the range of 1000 to 10000 nM.

With `COc1cc(CC(=O)Nc2nn3cccnc3c2-c2cccc(F)c2)cc(OC)c1` [Example 138, 2-(3,5-dimethoxyphenyl)-N-[3-(3-fluorophenyl)pyrazolo[1,5-a]pyrimidin-2-yl]acetamide], the Emax was 11% and the EC50 is more than 10000 nM.

Turning to `O=C(Cc1ccc(F)cc1)Nc1nn2cccnc2c1-c1ccc(OC(F)(F)F)cc1` [Example 140, 2-(4-fluorophenyl)-N-{3-[4-(trifluoromethoxy)phenyl]pyrazolo[1,5-a]pyrimidin-2-yl}acetamide], the Emax is 66% and the EC50 was more than 10000 nM.

For `Cc1ccccc1-c1c(NC(=O)CC(C)(C)C)nn2cccnc12` [Example 141, 3,3-dimethyl-N-[3-(2-methylphenyl)pyrazolo[1,5-a]pyrimidin-2-yl]butanamide], the Emax is 6% and the EC50 is more than 10000 nM.

With `O=C(CC12CC3CC(CC(C3)C1)C2)Nc1nn2cccnc2c1-c1ccc(OC(F)(F)F)cc1` [Example 142, 2-(adamantan-1-yl)-N-{3-[4-(trifluoromethoxy)phenyl]pyrazolo[1,5-a]pyrimidin-2-yl}acetamide], the Emax turned out to be 152% and the EC50 lay within 1000 to 10000 nM.

For the compound `Cc1cnc2c(-c3ccc(F)c(C)c3)c(NC(=O)CSC3CCCC3)nn2c1` [Example 143, 2-(cyclopentylthio)-N-[3-(4-fluoro-3-methylphenyl)-6-methylpyrazolo[1,5-a]pyrimidin-2-yl]acetamide], the Emax was 162% and the EC50 is 100 to 500 nM.

For the compound `CC(C)(C)/C=C/c1c(NC(=O)CC(C)(C)C)nn2cccnc12` [Example 144, N-{3-[(1E)-3,3-dimethylbut-1-en-1-yl]pyrazolo[1,5-a]pyrimidin-2-yl}-3,3-dimethylbutanamide], the Emax stood at 174% and the EC50 was 100 to 500 nM.

Take `CCC1(c2c(NC(=O)CCC3CCCC3)nn3cccnc23)CCCCC1` [Example 145, 3-cyclopentyl-N-[3-(1-ethylcyclohexyl)pyrazolo[1,5-a]pyrimidin-2-yl]propanamide]: the Emax is 182% and the EC50 lay in the range of 100 to 500 nM.

`CC(C)(C)CC(=O)Nc1nn2cccnc2c1/C=C/c1ccc(C(F)(F)F)cc1` [Example 147, 3,3-dimethyl-N-(3-{(E)-2-[4-(trifluoromethyl)phenyl]vinyl}pyrazolo[1,5-a]pyrimidin-2-yl)butanamide]: the Emax is 65% and the EC50 lay in the range of 1000 to 10000 nM.

In the case of `CC(C)(C)OC(=O)Nc1nn2cccnc2c1-c1ccc(OC(F)(F)F)cc1` [Example 148, tert-butyl {3-[4-(trifluoromethoxy)phenyl]pyrazolo[1,5-a]pyrimidin-2-yl}carbamate], the Emax came to 20% and the concentration giving a half-maximal response (EC50) was more than 10000 nM.

`Cc1cnc2c(-c3ccc(F)c(C)c3)c(NC(=O)CC(C)(C)c3ccccc3)nn2c1` [Example 149, N-[3-(4-fluoro-3-methylphenyl)-6-methylpyrazolo[1,5-a]pyrimidin-2-yl]-3-methyl-3-phenylbutanamide]: the Emax was found to be 127% and the EC50 was 500 to 1000 nM.

Consider `Cc1cnc2c(-c3ccc(F)c(C)c3)c(NC(=O)CC34CC5CC(CC(C5)C3)C4)nn2c1` [Example 151, 2-(adamantan-1-yl)-N-[3-(4-fluoro-3-methylphenyl)-6-methylpyrazolo[1,5-a]pyrimidin-2-yl]acetamide], for which the Emax stood at 179% and the EC50 is less than 100 nM.

The values are drawn from patent US8609669B2, “Potassium channel modulators” (AbbVie Inc., priority 2010, dated 2013).
